# Experimental data taken from patent US8669266B2, “Quinoline-carboxamide derivatives as P2Y12 antagonists” (Sanofi, priority 2007, dated 2014).
# Molecular target: human P2Y12 receptor (Homo sapiens (Human), UniProt Q9H244)
# Experiment: Human P2Y12 recombinant cell membrane binding assay with 33P 2MeS-ADP
# Conditions: CHO cell membranes with recombinant human P2Y12; competition against 33P 2MeS-ADP
# Description: The ability of the compounds of the formula I to inhibit the P2Y12 receptor can be assessed by determining the concentration of the compound of the formula I that binds to the human P2Y12 Recombinant Cell Membrane Binding Assay with 33P 2MeS-ADP.
# Human P2Y12 Recombinant Cell Membrane Binding Assay
# The ability of a test compound to bind to the P2Y12 receptor was evaluated in a recombinant cell membrane binding assay. In this competitive binding assay, the test compound competed against a radiolabeled agonist for binding to the P2Y12 receptor, expressed on the cell membrane. Inhibition of binding of the labeled material was measured and correlated to the amount and potency of the test compound.
# As source of P2Y12, a membrane preparation was prepared from Chinese Hamster Ovary (CHO) cells with recombinant expression of the human P2Y12 receptor according to standard procedures.
# Next, wells were washed four times with 400 μl/well of stop buffer on a plate vacuum. The plate was disassembled and allowed to air dry overnight with the filter side up over night. […] The top of the filter plate was sealed with plastic plate covers. The sealed filter plate were incubated 2 hours at RT. A Microbeta Scintillation Counter was used to measure counts.
# Compounds were diluted as 10 mM DMSO stocks and tested in a four-point, five-fold dilution series run in triplicate beginning at 10 μM, final concentration. Data were analyzed using a four-parameter curve fit with a fixed minimum and maximum experimentally defined as the average positive and negative controls on each plate.
# human P2Y12 receptor, sequence (Q9H244 whole entry): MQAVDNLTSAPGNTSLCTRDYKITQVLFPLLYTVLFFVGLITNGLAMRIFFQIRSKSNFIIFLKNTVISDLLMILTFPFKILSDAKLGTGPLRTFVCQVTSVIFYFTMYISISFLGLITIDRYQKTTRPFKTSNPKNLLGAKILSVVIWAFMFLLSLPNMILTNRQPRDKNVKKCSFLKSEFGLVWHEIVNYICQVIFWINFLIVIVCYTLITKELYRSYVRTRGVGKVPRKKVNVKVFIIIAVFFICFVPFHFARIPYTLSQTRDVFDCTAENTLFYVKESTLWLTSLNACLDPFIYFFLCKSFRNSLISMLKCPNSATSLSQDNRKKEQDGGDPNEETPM
row,IC50 [nM],Compound
1,71,"CCOC(=O)N1CCN(C(=O)[C@H](CCC(=O)OCC2CCCC2)NC(=O)c2cc(OCC(=O)N3CCC[C@H]3C(=O)NC3CCC3)c3ccc(C)cc3n2)CC1 [Example 246, 4-[(S)-2-({4-[2-((S)-2-Cyclobutylcarbamoyl-pyrrolidin-1-yl)-2-oxo-ethoxy]-7-methyl-quinoline-2-carbonyl}-amino)-4-cyclopentylmethoxycarbonyl-butyryl]-piperazine-1-carboxylic acid ethyl ester]"
2,9,"CCOC(=O)N1CCN(C(=O)[C@H](CC(=O)O)NC(=O)c2cc(OCC(=O)N3CCC[C@H]3C(=O)NC3CCC3)c3cc(F)c(C)cc3n2)CC1 [Example 270, 4-[(S)-3-Carboxy-2-({4-[2-((S)-2-cyclobutylcarbamoyl-pyrrolidin-1-yl)-2-oxo-ethoxy]-6-fluoro-7-methyl-quinoline-2-carbonyl}-amino)-propionyl]-piperazine-1-carboxylic acid ethyl ester]"
3,12,"CCOC(=O)N1CCN(C(=O)[C@H](CCC(=O)O)NC(=O)c2cc(O[C@H](C)C(=O)N3CCC[C@H]3C(=O)N3CCCCC3)c3ccc(C)cc3n2)CC1 [Example 296, 4-{(S)-4-Carboxy-2-[(7-methyl-4-{(R)-1-methyl-2-oxo-2-[(S)-2-(piperidine-1-carbonyl)-pyrrolidin-1-yl]-ethoxy}-quinoline-2-carbonyl)-amino]-butyryl}-piperazine-1-carboxylic acid ethyl ester]"
4,5,"CCOC(=O)N1CCN(C(=O)[C@H](CCC(=O)O)NC(=O)c2cc(O[C@H](C)C(=O)N3CCC[C@H]3C(=O)NCC3CC3)c3ccc(C)cc3n2)CC1 [Example 300, 4-{(S)-4-Carboxy-2-[(4-{(R)-2-[(S)-2-(cyclopropylmethyl-carbamoyl)-pyrrolidin-1-yl]-1-methyl-2-oxo-ethoxy}-7-methyl-quinoline-2-carbonyl)-amino]-butyryl}-piperazine-1-carboxylic acid ethyl ester]"
5,102,"CCOC(=O)N1CCN(C(=O)[C@H](CCC(=O)O)NC(=O)c2cc(OCC(=O)N3CCCC3c3ccccc3)c3ccccc3n2)CC1 (stereo partly drawn) [Example 334, 4-[(S)-4-Carboxy-2-({4-[2-oxo-2-(2-phenyl-pyrrolidin-1-yl)-ethoxy]-quinoline-2-carbonyl}-amino)-butyryl]-piperazine-1-carboxylic acid ethyl ester]"
6,33,"CCCCOC(=O)N1CC(NC(=O)[C@H](CCC(=O)O)NC(=O)c2cc(OCC(=O)N3CCC[C@H]3C(=O)NC3CCC3)c3ccccc3n2)C1 [Example 424, 3-[(S)-4-Carboxy-2-({4-[2-((S)-2-cyclobutylcarbamoyl-pyrrolidin-1-yl)-2-oxo-ethoxy]-quinoline-2-carbonyl}-amino)-butyrylamino]-azetidine-1-carboxylic acid butyl ester]"
7,21,"CCCCOC(=O)N1CCN(C(=O)[C@H](CCC(=O)O)NC(=O)c2cc(OCC(=O)N3CCC[C@H]3C(=O)NC3CCC3)c3ccc(C)cc3c2)CC1 [Example 511, 4-[(S)-4-Carboxy-2-({4-[2-((S)-2-cyclobutylcarbamoyl-pyrrolidin-1-yl)-2-oxo-ethoxy]-7-methyl-naphthalene-2-carbonyl}-amino)-butyryl]-piperazine-1-carboxylic acid butyl ester]"
8,5,"CCCCOC(=O)N1CCN(C(=O)CNC(=O)c2cc(OCC(=O)N3CCC[C@H]3C(=O)NC3CCC3)c3ccccc3n2)CC1 [Example 673, 4-[2-({4-[2-((S)-2-Cyclobutylcarbamoyl-pyrrolidin-1-yl)-2-oxo-ethoxy]-quinoline-2-carbonyl}-amino)-acetyl]-piperazine-1-carboxylic acid butyl ester]"
9,3,"Cc1ccc2c(OCC(=O)N3CCC[C@H]3C(=O)NC3CCC3)cc(C(=O)NCC(=O)N3CCN(C(=O)OCCC(F)(F)F)CC3)nc2c1 [Example 679, 4-[2-({4-[2-((S)-2-Cyclobutylcarbamoyl-pyrrolidin-1-yl)-2-oxo-ethoxy]-7-methyl-quinoline-2-carbonyl}-amino)-acetyl]-piperazine-1-carboxylic acid 3,3,3-trifluoro-propyl ester]"

# Tested on: human platelet rich plasma
# Experiment: Inhibition of human platelet aggregation, 96-well assay (ADP-induced, platelet rich plasma)
# Type: cell-based
# Conditions: 20 min, 96-well plate, human PRP, aggregation induced by ADP, AUC of absorbance over 20 minutes, 37° C.
# Description: Alternatively to a binding assay which measures a compound's ability to bind to the P2Y12 receptor, the effect on cellular function was also determined. This ability of the compound was evaluated in two platelet aggregation assays: in 96-well plates and with the “Born”-method using single cuvettes.
# Whole blood was collected from healthy volunteers using 20 ml syringes containing 2 ml of ACD-A Aqua-Citrat-Dextrose-A, Fresenius). The anticoagulated whole blood was transferred into 15 ml polypropylene conical tubes (10 ml per tube). The tubes were centrifuged for 15 minutes at 150×g at RT without using the centrifuge brake. This procedure leads to a pellet of cellular components and a supernatant of platelet rich plasma (PRP). The PRP layer was collected from each tube and pooled for each donor. To avoid carry over of cellular components following centrifugation, approximately 5 ml of PRP was left in the tube. The platelet concentration was determined using a Coulter Counter.
# The 15 ml tubes containing the pellet of cellular components were centrifuged again for 10 minutes at 1940×g. This pelleted out most particulate blood constituents remaining, leaving a layer of Platelet Poor Plasma (PPP). The PPP was collected for each donor. The PRP layer, previously set aside, was diluted with PPP to a final concentration of approximately 3×E8 platelets/ml with the PPP.
# The human platelet aggregation assay is performed in 96-well plates using a microtiter plate reader (SpectraMax Plus 384 with SoftMax Pro software from Molecular Devices).
# In the plate 15 μl of test compound at 10× final concentration in NaCl is mixed with 120 μl fresh PRP and incubated for 5 minutes. Following that incubation period, 15 μl of 40 μM ADP is added to the reaction mix. This addition of ADP is sufficient to induce aggregation in the absence of an inhibitor. The plates are then transferred to the microplate reader and aggregation is measured over 20 minutes. The instrument settings include: Absorbance at 650 nm, run time 20 minutes with readings in 1-minute intervals and 50 seconds shaking between readings all performed at 37° C. Results of the assay are expressed as % inhibition, and are calculated using area under curve (AUC) of the absorbance over 20 minutes.
row,IC50 [nM],Compound
1,180,"CCOC(=O)N1CCN(C(=O)[C@H](CCC(=O)O)NC(=O)c2cc(OCC(=O)N3CCC(O)CC3)c3ccc(C)cc3n2)CC1 [Example 10, 4-[(S)-4-Carboxy-2-({4-[2-(4-hydroxy-piperidin-1-yl)-2-oxo-ethoxy]-7-methyl-quinoline-2-carbonyl}-amino)-butyryl]-piperazine-1-carboxylic acid ethyl ester]"
2,30,"CCNC(=O)[C@@H]1CCCN1C(=O)COc1cc(C(=O)N[C@@H](CCC(=O)O)C(=O)N2CCN(C(=O)OCC)CC2)nc2cccc(F)c12 [Example 179, 4-[(S)-4-Carboxy-2-({4-[2-((S)-2-ethylcarbamoyl-pyrrolidin-1-yl)-2-oxo-ethoxy]-5-fluoro-quinoline-2-carbonyl}-amino)-butyryl]-piperazine-1-carboxylic acid ethyl ester]"
3,60,"CCOC(=O)N1CCN(C(=O)[C@H](CCC(=O)O)NC(=O)c2cc(OCC(=O)N3CCC[C@H]3C(=O)NCC3CCC3)c3ccc(C)cc3n2)CC1 [Example 308, 4-{(S)-4-Carboxy-2-[(4-{2-[(S)-2-(cyclobutylmethyl-carbamoyl)-pyrrolidin-1-yl]-2-oxo-ethoxy}-7-methyl-quinoline-2-carbonyl)-amino]-butyryl}-piperazine-1-carboxylic acid ethyl ester]"
4,73,"CCCCOC(=O)N1CCN(C(=O)[C@H](CCC(=O)O)NC(=O)c2cc(OCC(=O)N3CCC[C@H]3C#N)c3ccc(C)cc3n2)CC1 [Example 460, 4-[(S)-4-Carboxy-2-({4-[2-((S)-2-cyano-pyrrolidin-1-yl)-2-oxo-ethoxy]-7-methyl-quinoline-2-carbonyl}-amino)-butyryl]-piperazine-1-carboxylic acid butyl ester]"
5,65,"CCCCOC(=O)N1CCN(C(=O)[C@H](CCC(=O)O)NC(=O)c2cc(OCC(=O)N3CC(O)C3)c3ccc(C)cc3n2)CC1 [Example 472, 4-[(S)-4-Carboxy-2-({4-[2-(3-hydroxy-azetidin-1-yl)-2-oxo-ethoxy]-7-methyl-quinoline-2-carbonyl}-amino)-butyryl]-piperazine-1-carboxylic acid butyl ester]"
